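Exposure lasted 48 hours, with cells grown in 96-well plates and compounds tested at five concentrations. At the TGI there is no net growth.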
Experiments:
Test in all cases: growth of human tumour cells (NCI), 48 h
LOX IMVI melanoma = test system: LOX IMVI melanoma
RPMI-8226 leukemia = test system: RPMI-8226 leukemia
UACC-62 melanoma = test system: UACC-62 melanoma
HS 578T breast = test system: HS 578T breast
SF-268 CNS = test system: SF-268 CNS
NCI-H522 lung = test system: NCI-H522 lung
PC-3 prostate = test system: PC-3 prostate
HCC-2998 colon = test system: HCC-2998 colon
SN12C renal = test system: SN12C renal
HL-60(TB) leukemia = test system: HL-60(TB) leukemia
HCT-15 colon = test system: HCT-15 colon
SNB-19 CNS = test system: SNB-19 CNS
TK-10 renal = test system: TK-10 renal
OVCAR-4 ovarian = test system: OVCAR-4 ovarian
BT-549 breast = test system: BT-549 breast
NCI-H23 lung = test system: NCI-H23 lung
HOP-62 NSCLC = test system: HOP-62 NSCLC
UACC-257 melanoma = test system: UACC-257 melanoma
SK-OV-3 ovarian = test system: SK-OV-3 ovarian
CCRF-CEM leukemia = test system: CCRF-CEM leukemia
U251 CNS = test system: U251 CNS
KM12 colon = test system: KM12 colon
A549 NSCLC = test system: A549 NSCLC
IGROV1 ovarian = test system: IGROV1 ovarian
HOP-92 NSCLC = test system: HOP-92 NSCLC
NCI-H460 lung = test system: NCI-H460 lung
MDA-N = test system: MDA-N
EKVX NSCLC = test system: EKVX NSCLC
MDA-MB-231 breast = test system: MDA-MB-231 breast
SR leukemia = test system: SR leukemia
OVCAR-8 ovarian = test system: OVCAR-8 ovarian
OVCAR-3 ovarian = test system: OVCAR-3 ovarian
NCI-H226 lung = test system: NCI-H226 lung
MOLT-4 leukemia = test system: MOLT-4 leukemia
ACHN renal = test system: ACHN renal
SF-295 CNS = test system: SF-295 CNS
K-562 leukemia = test system: K-562 leukemia
786-0 renal = test system: 786-0 renal
NCI/ADR-RES ovarian = test system: NCI/ADR-RES ovarian
SK-MEL-5 melanoma = test system: SK-MEL-5 melanoma
T-47D breast = test system: T-47D breast
MDA-MB-435 = test system: MDA-MB-435
COLO 205 colon = test system: COLO 205 colon
HCT-116 colon = test system: HCT-116 colon
SF-539 CNS = test system: SF-539 CNS
DU-145 prostate = test system: DU-145 prostate
M14 melanoma = test system: M14 melanoma
SK-MEL-2 melanoma = test system: SK-MEL-2 melanoma
MALME-3M melanoma = test system: MALME-3M melanoma
MCF7 breast = test system: MCF7 breast
SK-MEL-28 melanoma = test system: SK-MEL-28 melanoma
HT29 colon = test system: HT29 colon
A498 renal = test system: A498 renal
SW-620 colon = test system: SW-620 colon
CAKI-1 renal = test system: CAKI-1 renal
SNB-75 CNS = test system: SNB-75 CNS
RXF 393 renal = test system: RXF 393 renal
UO-31 renal = test system: UO-31 renal
OVCAR-5 ovarian = test system: OVCAR-5 ovarian

O=C1c2ccccc2C(=O)N1c1nc(-c2ccc(Cl)cc2)cc(N2N=C(c3ccc(Br)cc3)CC2c2ccccc2)n1 (stereo not drawn)
TGI (LOX IMVI melanoma): 3.78 µM
TGI (RPMI-8226 leukemia): 11.7 µM
TGI (UACC-62 melanoma): 11.5 µM
TGI (HS 578T breast): 20.8 µM
TGI (SF-268 CNS): 7.72 µM
TGI (NCI-H522 lung): 5.51 µM
TGI (PC-3 prostate): > 27.5 µM
TGI (HCC-2998 colon): 0.966 µM
TGI (SN12C renal): 17.1 µM
TGI (HL-60(TB) leukemia): > 100 µM
TGI (HCT-15 colon): 7.14 µM
TGI (SNB-19 CNS): > 33.8 µM
TGI (TK-10 renal): > 49 µM
TGI (OVCAR-4 ovarian): > 33 µM
TGI (BT-549 breast): 16.8 µM
TGI (NCI-H23 lung): > 22.6 µM
TGI (HOP-62 NSCLC): > 23 µM
TGI (UACC-257 melanoma): > 41.4 µM
TGI (SK-OV-3 ovarian): > 46.1 µM
TGI (CCRF-CEM leukemia): > 29.6 µM
TGI (U251 CNS): 5.99 µM
TGI (KM12 colon): > 63.9 µM
TGI (A549 NSCLC): 17.4 µM
TGI (IGROV1 ovarian): > 32.6 µM
TGI (HOP-92 NSCLC): 82.3 µM
TGI (NCI-H460 lung): > 41.9 µM
TGI (MDA-N): 4.57 µM
TGI (EKVX NSCLC): 5.99 µM
TGI (MDA-MB-231 breast): 23.3 µM
TGI (SR leukemia): 2.42 µM
TGI (OVCAR-8 ovarian): > 24.1 µM
TGI (OVCAR-3 ovarian): 2.65 µM
TGI (NCI-H226 lung): 29.8 µM
TGI (MOLT-4 leukemia): > 23.7 µM
TGI (ACHN renal): > 21.7 µM
TGI (SF-295 CNS): 3.65 µM
TGI (K-562 leukemia): > 100 µM
TGI (786-0 renal): > 34.1 µM
TGI (NCI/ADR-RES ovarian): 6.05 µM
TGI (SK-MEL-5 melanoma): 5.02 µM
TGI (T-47D breast): 5.26 µM
TGI (MDA-MB-435): 2.62 µM
TGI (COLO 205 colon): 4.84 µM
TGI (HCT-116 colon): > 20.5 µM
TGI (SF-539 CNS): 4.41 µM
TGI (DU-145 prostate): > 23.3 µM
TGI (M14 melanoma): > 36.1 µM
TGI (SK-MEL-2 melanoma): > 42.2 µM
TGI (MALME-3M melanoma): > 60.6 µM
TGI (MCF7 breast): 4.57 µM
TGI (SK-MEL-28 melanoma): 21.4 µM
TGI (HT29 colon): 9.66 µM
TGI (A498 renal): 35.4 µM

Cn1c2ccccc2n2c3ncccc3c(=S)c(C#N)c12
TGI (LOX IMVI melanoma): > 100 µM
TGI (RPMI-8226 leukemia): > 100 µM
TGI (UACC-62 melanoma): > 100 µM
TGI (HS 578T breast): > 100 µM
TGI (SF-268 CNS): > 100 µM
TGI (NCI-H522 lung): > 100 µM
TGI (PC-3 prostate): > 100 µM
TGI (SW-620 colon): > 100 µM
TGI (HCC-2998 colon): > 100 µM
TGI (SN12C renal): > 100 µM
TGI (HL-60(TB) leukemia): > 100 µM
TGI (HCT-15 colon): > 100 µM
TGI (SNB-19 CNS): > 100 µM
TGI (CAKI-1 renal): > 100 µM
TGI (OVCAR-4 ovarian): > 100 µM
TGI (BT-549 breast): > 100 µM
TGI (NCI-H23 lung): > 100 µM
TGI (HOP-62 NSCLC): > 100 µM
TGI (SK-OV-3 ovarian): > 100 µM
TGI (CCRF-CEM leukemia): > 100 µM
TGI (U251 CNS): > 100 µM
TGI (SNB-75 CNS): > 100 µM
TGI (KM12 colon): > 100 µM
TGI (A549 NSCLC): > 100 µM
TGI (IGROV1 ovarian): > 100 µM
TGI (NCI-H460 lung): > 100 µM
TGI (MDA-N): > 100 µM
TGI (EKVX NSCLC): > 100 µM
TGI (MDA-MB-231 breast): > 100 µM
TGI (SR leukemia): > 100 µM
TGI (OVCAR-8 ovarian): > 100 µM
TGI (OVCAR-3 ovarian): > 100 µM
TGI (NCI-H226 lung): > 100 µM
TGI (MOLT-4 leukemia): > 100 µM
TGI (ACHN renal): > 100 µM
TGI (SF-295 CNS): > 100 µM
TGI (K-562 leukemia): > 100 µM
TGI (786-0 renal): > 100 µM
TGI (NCI/ADR-RES ovarian): > 100 µM
TGI (SK-MEL-5 melanoma): > 100 µM
TGI (T-47D breast): > 100 µM
TGI (MDA-MB-435): > 100 µM
TGI (RXF 393 renal): > 100 µM
TGI (COLO 205 colon): > 100 µM
TGI (HCT-116 colon): > 100 µM
TGI (DU-145 prostate): > 100 µM
TGI (M14 melanoma): > 100 µM
TGI (SK-MEL-2 melanoma): > 100 µM
TGI (MALME-3M melanoma): > 100 µM
TGI (MCF7 breast): > 100 µM
TGI (SK-MEL-28 melanoma): > 100 µM
TGI (HT29 colon): > 100 µM
TGI (UO-31 renal): > 100 µM
TGI (OVCAR-5 ovarian): > 100 µM
TGI (A498 renal): > 100 µM
